This note sets out measurements from ChEMBL document CHEMBL3785001, “New pentasubstituted pyrrole hybrid atorvastatin-quinoline derivatives with antiplasmodial activity” (Bioorg Med Chem Lett, 2016).

Data set [1] deals with Plasmodium falciparum. The experiment in a line: Antimalarial activity against chloroquine-sensitive Plasmodium falciparum NF54 infected in human erythrocytes incubated for 48 hrs by [3H]hypoxanthine incorporation assay. Format: functional, organism-based.
Data set [2] in a line: Cytotoxicity against African green monkey BGM cells assessed as cell viability after 24 hrs by neutral red assay. Type of data set: cell-based. The note with it: chlorocebus aethiops, read-out: MLD50.
The nature of a further data set: in vitro. The note with it: monkey.
In data set [3] the test system is Plasmodium falciparum. Kind of data set: microbe, parasite or virus in culture. Conditions: W2, 48 h.
Data set [4] concerns Plasmodium falciparum. The experiment in a line: Potency index, ratio of primaquine IC50 to compound IC50 for chloroquine-resistant Plasmodium falciparum W2 infected in human red blood cells. Format: functional.

`C[C@@H]1CC[C@H]2[C@@H](C)C(c3cccn3C)O[C@@H]3O[C@@]4(C)CC[C@@H]1[C@]32OO4` (some centres undefined) returned an IC50 with Plasmodium falciparum [1] of 0.0046 µM.
Take `CCCCn1c(-c2ccc(F)cc2)c(-c2ccccc2)c(C(=O)Nc2ccccc2)c1C(C)C`: the CC50 at 24 h in data set [2] is > 2200 µM. The selectivity ratio in the data set “in vitro” was > 345. This compound gave an IC50 with Plasmodium falciparum [3] of 6.39 µM.
Consider `CC(C)c1c(C(=O)Nc2ccccc2)c(-c2ccccc2)c(-c2ccc(F)cc2)n1CCCNc1ccnc2cc(Cl)ccc12`, for which, in data set [2], the CC50 at 24 h is 136 µM. For the same compound, in the data set on Plasmodium falciparum [4], the “Ratio IC50” value is recorded as 5. Further, the selectivity ratio in “in vitro” turned out to be 210. This compound had an IC50 in the data set with Plasmodium falciparum [3] of 0.65 µM.
Regarding `CC(C)c1c(C(=O)Nc2ccccc2)c(-c2ccccc2)c(-c2ccc(F)cc2)n1CCNc1ccnc2cc(Cl)ccc12`, the CC50 at 24 h in data set [2] was > 1660 µM. Besides, the “Ratio IC50” value in the data set on Plasmodium falciparum [4] is given as 5. Further, the selectivity ratio in “in vitro” is > 1680. Besides, the midpoint of inhibition in the data set on Plasmodium falciparum [3], the IC50, lay at 0.99 µM.
With `COc1cc(NC(C)CCCn2c(-c3ccc(F)cc3)c(-c3ccccc3)c(C(=O)Nc3ccccc3)c2C(C)C)c2ncccc2c1` (centres undefined), the CC50 at 24 h in data set [2] is > 1560 µM. Moreover, the “Ratio IC50” value in the data set on Plasmodium falciparum [4] was determined as 5. Also, the selectivity ratio in the data set “in vitro” was > 1110. In the data set on Plasmodium falciparum [3], the IC50 came to 1.41 µM.
With `CC(C)c1c(C(=O)Nc2ccccc2)c(-c2ccccc2)c(-c2ccc(F)cc2)n1CCCCNc1ccnc2cc(Cl)ccc12`, in data set [2], the CC50 at 24 h came out at 187 µM. Also, the “Ratio IC50” value in the data set with Plasmodium falciparum [4] came out at 5. For the same compound, the selectivity ratio in the data set “in vitro” turned out to be 468. Besides, the IC50 with Plasmodium falciparum [3] amounted to 0.4 µM.
In the case of `CC(C)c1c(C(=O)Nc2ccccc2)c(-c2ccccc2)c(-c2ccc(F)cc2)n1CC[C@@H](O)C[C@@H](O)CC(=O)O` [ATORVASTATIN], half-maximal inhibition in the data set on Plasmodium falciparum [3] (IC50) was put at 10.3 µM.
On to `COc1cc(NC(C)CCCN)c2ncccc2c1` (centres undefined) [PRIMAQUINE], for which the CC50 at 24 h in data set [2] is 452 µM. Also, the selectivity ratio in the data set “in vitro” was found to be 239. In addition, the IC50 in the data set with Plasmodium falciparum [3] amounted to 1.89 µM.
